Experimental data: the CheMixHub viscosity set

Assay: xn = mol fraction of the nth substance listed

O=C(O)[C@@H]1CCCN1 + O
viscosity [mPa·s], 101 kPa
Conditions | x1 = 0.00045 | x1 = 0.0009 | x1 = 0.00135 | x1 = 0.001798 | x1 = 0.002245 | x1 = 0.002695 | x1 = 0.003143 | x1 = 0.003588
293.15 K | 1.009 | 1.018 | 1.027 | 1.036 | 1.045 | 1.054 | 1.064 | 1.073
298.15 K | 0.8966 | 0.9039 | 0.9114 | 0.9192 | 0.9269 | 0.9349 | 0.9428 | 0.9507
303.15 K | 0.8027 | 0.809 | 0.8154 | 0.8221 | 0.8288 | 0.8354 | 0.8421 | 0.8487
308.15 K | 0.7236 | 0.7289 | 0.7344 | 0.7401 | 0.7456 | 0.7513 | 0.757 | 0.7625
313.15 K | 0.6566 | 0.6611 | 0.6658 | 0.6705 | 0.6753 | 0.68 | 0.6849 | 0.6894
318.15 K | 0.6007 | 0.6045 | 0.6085 | 0.6125 | 0.6164 | 0.6204 | 0.6244 | 0.6282

O=CC(Cl)(Cl)Cl + O
323.15 K, 101 kPa
Conditions | viscosity [mPa·s]
x1 = 0.05 | 1.031
x1 = 0.1 | 1.731
x1 = 0.15 | 2.671
x1 = 0.2 | 4.156
x1 = 0.25 | 5.987
x1 = 0.3 | 8.751
x1 = 0.35 | 11.36
x1 = 0.4 | 14.33
x1 = 0.425 | 15.57
x1 = 0.45 | 16.37
x1 = 0.465 | 17.06
x1 = 0.475 | 17.38
x1 = 0.49 | 17.26
x1 = 0.5 | 16.72
x1 = 0.55 | 14.07
x1 = 0.6 | 11.39
x1 = 0.7 | 5.695
x1 = 0.8 | 2.681
x1 = 0.9 | 1.447

OCC(F)(F)C(F)(F)F + O
viscosity [mPa·s], 100 kPa
Conditions | x1 = 0.5504 | x1 = 0.6564 | x1 = 0.7892 | x1 = 0.8991
298.15 K | 2.607 | 2.626 | 2.774 | 3.069
323.15 K | 1.263 | 1.278 | 1.318 | 1.401

[I-].[Li+] + O
Conditions | viscosity [mPa·s]
293.15 K, 100 kPa, x1 = 0.005076 | 1.025
293.15 K, 101 kPa, x1 = 0.00701 | 1.029
293.15 K, 101 kPa, x1 = 0.01933 | 1.076
293.15 K, 101 kPa, x1 = 0.04884 | 1.205
293.15 K, 101 kPa, x1 = 0.06296 | 1.292
293.15 K, 101 kPa, x1 = 0.08324 | 1.429
293.15 K, 101 kPa, x1 = 0.1073 | 1.656
293.15 K, 101 kPa, x1 = 0.1418 | 2.218
303.15 K, 101 kPa, x1 = 0.0017 | 0.808
303.15 K, 101 kPa, x1 = 0.00416 | 0.813
303.15 K, 101 kPa, x1 = 0.00701 | 0.821
303.15 K, 101 kPa, x1 = 0.01933 | 0.866
303.15 K, 101 kPa, x1 = 0.02768 | 0.895
303.15 K, 101 kPa, x1 = 0.04884 | 0.977
303.15 K, 101 kPa, x1 = 0.06296 | 1.049
303.15 K, 101 kPa, x1 = 0.08324 | 1.178
303.15 K, 101 kPa, x1 = 0.1073 | 1.376
303.15 K, 101 kPa, x1 = 0.1418 | 1.819
310.15 K, 101 kPa, x1 = 0.000205 | 0.6972
310.15 K, 101 kPa, x1 = 0.00126 | 0.6998
310.15 K, 101 kPa, x1 = 0.001978 | 0.7017
310.15 K, 101 kPa, x1 = 0.002695 | 0.7035
310.15 K, 101 kPa, x1 = 0.003679 | 0.706
310.15 K, 101 kPa, x1 = 0.005197 | 0.7098
310.15 K, 101 kPa, x1 = 0.005988 | 0.7118
323.15 K, 101 kPa, x1 = 0.0017 | 0.555
323.15 K, 101 kPa, x1 = 0.00416 | 0.561
323.15 K, 101 kPa, x1 = 0.00701 | 0.567
323.15 K, 101 kPa, x1 = 0.01933 | 0.602
323.15 K, 101 kPa, x1 = 0.02768 | 0.628
323.15 K, 101 kPa, x1 = 0.04884 | 0.693
323.15 K, 101 kPa, x1 = 0.06296 | 0.752
323.15 K, 101 kPa, x1 = 0.08324 | 0.849
323.15 K, 101 kPa, x1 = 0.1073 | 1.002
323.15 K, 101 kPa, x1 = 0.1418 | 1.344
